# “Also recorded” adds a separate entry of the source.
# What was measured:
# [1] = tested on: L. grayi strains; assay: Culture of five L. grayi strains in the presence of antibiotics; assay type: cell-based, Listeria grayi; details: 35° C. in Minimal Media A1; 10 mg/L acriflavine, 40 mg/L nalidixic acid, 10 mg/L polymyxin B, 40 mg/L ceftazidime
# Description: Separately, five L. grayi strains were cultured at 35° C. in the Minimal Media A1 supplemented separately with 10 mg/L of acriflavine, 40 mg/L of nalidixic acid, 10 mg/L of polymyxin B, 40 mg/L of ceftazidime, and a combination thereof. As a result, the effects of each antibiotic on the growth of L. grayi were trivial. […] The two strains reached maximum cell densities within about 24 hours.
# [2] = tested on: heat-injured Listeria monocytogenes; assay: Recovery of sub-lethally heat-injured Listeria cells on Minimal Medium A1 agar; assay type: cell-based; details: cells heated 50° C. 10 minutes; for effect in recovering heat-injured Listeria spp.: Minimal Medium supplemented with the agent
# Description: Most Listeria infection cases are associated with pasteurized dairy products. Therefore, the effects of the Minimal Medium A1 on the recovery of sub-lethally heat-injured Listeria spp. were investigated. Overnight-cultured Listeria monocytogenes was serially diluted by 10 folds with PBS. 1 mL of the culture suspension (about 3780 CFU) was cultured at 50° C. for 10 minutes, and 0.1 mL of the culture product was inoculated on the Minimal Medium A1 in agar plate (1.5% agar) in the presence or non-presence of selective agents.
# FIG. 4 is a graph illustrating the effects of medium ingredients on the recovery of heat-injured Listeria spp. […] In FIG. 4, “Pyruvate” indicates a Minimal Medium A1 supplemented with sodium pyruvate, “A1-NONE” indicates a Minimal Medium A1 supplemented with none, and “BHI-NONE” indicates a brain heart infusion medium supplemented with none. “Acriflavine,” “Nalidixic acid,” “Polymyxin B,” “Ceftazidime” and “All” denote Minimal Media A supplemented with […], 40 mg/L of nalidixic acid, 10 mg/L of polymyxin B, 40 mg/L of ceftazidime, and all of these antibiotics, respectively.
# [3] = tested on: background microflora; assay: Effects of antibiotics on background microflora of ground beef (aerobic plate counts); assay type: cell-based; details: 10 g/L ground beef, 35° C., Minimal Media A; among the four antibiotics
# Description: In addition, effects of antibiotics on background microflora were investigated. First, 10 g/L of ground beef was cultured at 35° C. in the Minimal Media A supplemented separately with 10 mg/L of acriflavine, 40 mg/L of nalidixic acid, 10 mg/L of polymyxin B, 40 mg/L of ceftazidime, and a combination thereof. The cell concentrations before and after culture were determined based on aerobic plate counts. The aerobic plate counts were determined by inoculating 100 μL of the culture products into Difco® Plate Count agar medium, culturing the mixture at 35° C. for 24 hours, and counting cell colonies
# FIG. 3 is a graph illustrating the effects of antibiotics on background microflora. Referring to FIG. 3, the growth of the background microfluora was inhibited about 100 times more strongly when the four antibiotics were added together, than when they were used individually.
# [4] = tested on: Listeria monocytogenes; assay: Effect of LiCl concentration in Minimal Medium A1 on cell growth (PCR Cp); assay type: cell-based; details: LiCl 1, 3, 5, 7, 9 or 10 g/L in Minimal Medium A1
# Description: 300 μL of overnight cultures (about of 3×10^9 CFU/ml) of Listeria monocytogenes in a brain hear infusion (BHI) medium was added into 30 mL of each of the pre-warmed media in 250 ml glass flask. Each mixture was cultured without shaking at 35° C. for 24 hours. Aliquots (20 μL) of the culture products were collected from each container after culture for 1, 2, 3, 4, 5, 6, 7, 8, 9 and 24 hours, respectively. Each culture product was treated with a TZ lysis buffer with 1 mg/ml proteinase K, and incubated at 55° C. for 15 min, 95° C. for 10 min, and cooled at 4° C. for 2 min. Cell lysates were added into the PCR mixture for real-time PCR. The PCR mixture contained forward and reverse primers of SEQ ID NOs. 5 and 6, the probe of SEQ ID No. 7, and the RNase H. The primers and probe were specific to the InlA gene of L. monocytogenes. The 5′ and 3′ ends of the probe were labeled with FAM and Iowa BFQ ([…]), respectively.
# The PCR conditions were as follows: UNG activation at 37° C. for 600 seconds; Denaturation at 95° C. for 600 seconds; Denaturation at 95° C. for 15 seconds; and annealing and elongation at 60° C. for 20 seconds (50 cycles). […]
Compound,effect on the growth of L. grayi [1],effect in recovering heat-injured Listeria spp. [2],inhibitory effect on cell growth of background microflora [3],recovery rate of heat-injured Listeria spp. ([2]; 10 g/L of sodium pyruvate compared to 10 mM of MgCl2),effect of LiCl concentration on Cp values / cell growth [4]
CC(C)(O/N=C(\C(=O)N[C@@H]1C(=O)N2C(C(=O)[O-])=C(C[n+]3ccccc3)CS[C@H]12)c1csc(N)n1)C(=O)O [ceftazidime],trivial,positive effects,–,–,–
acriflavine,trivial,positive effects,–,–,–
CCn1cc(C(=O)O)c(=O)c2ccc(C)nc21 [nalidixic acid],trivial,–,strongest inhibitory effect on cell growth,–,–
polymyxin B,trivial,positive effects,–,–,–
CC(=O)C(=O)[O-].[Na+] [sodium pyruvate],–,positive effects,–,recovery rate was improved,–
"[Cl-].[Li+] [LiCl, lithium chloride]",–,–,–,–,high LiCl concentration helped recovery of Listeria; also recorded: the smaller the Cp values and the more the cell growth was enhanced

# Reference: patent US20120052555A1, “ENRICHMENT OF LISTERIA SPP” (SAMSUNG TECHWIN CO., LTD., priority 2010, published 2012)
